Measurements reported in patent publication US9314525B2 (Axelar AB, priority 2010, dated 2016).
≈ marks a conversion by molar mass, not a printed value.

Columns and labels:
[1] = Physical stability of polymorphs stirred in water, sonicated or mortared (XRPD); format: physicochemical; settings: for Solid form by XRPD after stirring in water: slurry in water rotated for 24 hours
Method: The slurry was centrifuged and the supernatant was removed. The solid was dried under vacuum overnight and the sample was thereafter, stored at ambient conditions.
The slurry was centrifuged 3000 rpm for 10 minutes and the supernatant was removed. The solid was freezed (in a freezer) and freeze-dried overnight. The sample was kept at ambient conditions for 2 hours before the XRPD analysis.

[2] = Solubility in 1% SDS in water by LC-UV; format: physicochemical; settings: after 24 hours rotation, ambient temperature
Method: The solubility was determined in triplicate by use of LC-UV chromatography. […] The substance was rotated in the specific medium at ambient temperature for 24 hours, followed by filtering the supernatant using a hydrophilic PVDF (Millipore Corp.) 0.22 μm filter. The samples were then diluted with a 1:1 mixture of mobile phase A and B (see below) and analyzed using an Xterra™ MS C18, 50×2.1 mm column with UV detection at 288 nm. The mobile phase consisted of acetonitrile, water and trifluoroacetic acid, 5:95:0.1 (A) and 99:1:0.1 (B).
Solubility determinations were performed in 1% sodium dodecyl sulfate (SDS) in water.

[3] = Thermogravimetric analysis (TGA); format: physicochemical; settings: initial analysis
Method: (§1) Thermogravimetric analysis (TGA) was performed on a Seiko TG/DTA 6200 and open 90 μl Pt-pans with ca 10 to 25 mg of sample and a nitrogen flow of 200 ml/min. The temperature program was ambient (20° C.) to 400° C. with a heating rate of 10° C./min. A blank was subtracted and the TG data was normalized with respect to sample size and analyzed using the Muse Standard Analysis software, version 6.1 U (Seiko, Japan).

[4] = Three month solid state stability study (appearance, XRPD, TGA); format: physicochemical; settings: for TGA mass loss from ambient temperature to 150° C.: after 3 months storage at 40° C./75% RH; for Change in appearance: open containers
Method: Analysis was made by using X-Ray Powder Diffration (XRPD) and Thermogravimetry (TGA).
Experiments were run as described above using Cu Kα1 radiation (45 kV and 40 mA) at ambient temperature and humidity. Scans were run in continous scan mode in the range 2-50° 2θ using automatic divergence and antiscatter slits with observed length of 10 mm, a step size of 0.013° 2θ and a common counting time of 97.920 seconds.
as §1, with “Thermogravimetry” for “Thermogravimetric analysis”, “20” for “25”, “mL/min.” for “ml/min.”, “U.” for “U (Seiko, Japan).”

[5] = Powder dissolution profiling (intrinsic dissolution rate and apparent solubility) in PhB 6.5 and FeSSIF pH 6.5
Method: Phosphate buffer pH 6.5 (PhB 6.5) was prepared according to a protocol by Galia and co-workers (Galia, E., et al. Evaluation of various dissolution media for predicting in vivo performance of class I and II drugs. Pharm Res 15, pp. 698-705 (1998)). Briefly, 1000 mL of […] Na2HPO4 buffer pH 6.5 was prepared by dissolving 3.95 g Na2HPO4xH2O, 6.19 g NaCl and 0.42 g NaOH in a volumetric flask by adding purified water. The pH was adjusted to pH to 6.5 by titration with 0.5 M NaOH and the volume was adjusted to 1000 mL with purified water. This buffer was sterile filtered and thereafter stored in refrigerator. Fed state simulated intestinal fluid (FeSSIF pH 6.5) was prepared fresh on the day of the experiment by dissolving 1.12 g of Na-taurocholate/lecithin powder (ePhares, Switzerland) in 100 mL PhB ((Galia, E., et al. Evaluation of various dissolution media for predicting in vivo performance of class I and II drugs. Pharm Res 15, pp. 698-705 (1998)). The media was stirred and preheated to 37±1° C. resulting in clear solution of pH 6.5 which contained a mixed micelle system of 15 mM taurocholate and 3.75 mM lecithin.
Dissolution rate and apparent solubility was measured with the pDISS Profiler™ (pION INC, MA, USA) from 0.3-1.3 mg compound weighed into the vial to which the preheated (37° C.) dissolution medium was added. […] Each UV probe was calibrated with its own standard curve prior to the experiment. The obtained results were analysed with the software accompanying the pDISS equipment.
The detailed procedure of the powder dissolution experiments, including the theoretical background, can be found in Avdeef, A., Tsinman, K., Tsinman, O., Sun, N. & Voloboy, D. Miniaturization of powder dissolution measurement and estimation of particle size. Chem Biodivers 6, 1796-1811 (2009); in Fagerberg, J. H., et al. Dissolution Rate and Apparent Solubility of Poorly Soluble Drugs in Biorelevant Dissolution Media. Mol Pharm 7, 1419-1430, (2010); and in Tsinman, K., Avdeef, A., Tsinman, O. & Voloboy, D. Powder dissolution method for estimating rotating disk intrinsic dissolution rates of low solubility drugs. Pharm Res 26, 2093-2100 (2009).

[6] = Slurry experiments with mixture of polymorphs B and C in saturated picropodophyllin solutions; format: physicochemical
Method: The solid was filtered off and the saturated picropodophyllin solutions were used in the slurry experiment below.
The solid was filtered off using a glass filter and stored at ambient conditions for 2 hours.
The solid was filtered off using a glass filter and left on the glass filter for 30 minutes.
The slurry was slowly stirred overnight. The slurry was removed from the oil bath and immediately filtered through a glass filter. The solid was left on the glass filter for 30 minutes.
The slurry was slowly stirred for 4 hours. The slurry was removed from the oil bath and immediately filtered through a glass filter. The solid was left on the glass filter for 30 minutes.

[7] = Dynamic Vapour Sorption (DVS) hygroscopicity; format: physicochemical; settings: from 0 to 90% RH, 25° C.
Method: The hygroscopicity of the samples was studied by Dynamic Vapor Sorption Gravimetry (DVS) using a DVS-1 (Surface Measurement Ltd., UK).
Each sample was run in three consecutive full cycles. The condition to proceed to the next level of RH was a weight increase below or equal to 0.001% within 15 minutes, with a maximum total time per step of 24 hours. The temperature was kept at 25° C.

[8] = biological target: insulin-like growth factor-1 receptor (IGF-1R) (Homo sapiens, UniProt P08069); settings: disclosed in WO 02/102804; cited from earlier work
Sequence of insulin-like growth factor-1 receptor (IGF-1R) (P08069 31-1367, species assumed): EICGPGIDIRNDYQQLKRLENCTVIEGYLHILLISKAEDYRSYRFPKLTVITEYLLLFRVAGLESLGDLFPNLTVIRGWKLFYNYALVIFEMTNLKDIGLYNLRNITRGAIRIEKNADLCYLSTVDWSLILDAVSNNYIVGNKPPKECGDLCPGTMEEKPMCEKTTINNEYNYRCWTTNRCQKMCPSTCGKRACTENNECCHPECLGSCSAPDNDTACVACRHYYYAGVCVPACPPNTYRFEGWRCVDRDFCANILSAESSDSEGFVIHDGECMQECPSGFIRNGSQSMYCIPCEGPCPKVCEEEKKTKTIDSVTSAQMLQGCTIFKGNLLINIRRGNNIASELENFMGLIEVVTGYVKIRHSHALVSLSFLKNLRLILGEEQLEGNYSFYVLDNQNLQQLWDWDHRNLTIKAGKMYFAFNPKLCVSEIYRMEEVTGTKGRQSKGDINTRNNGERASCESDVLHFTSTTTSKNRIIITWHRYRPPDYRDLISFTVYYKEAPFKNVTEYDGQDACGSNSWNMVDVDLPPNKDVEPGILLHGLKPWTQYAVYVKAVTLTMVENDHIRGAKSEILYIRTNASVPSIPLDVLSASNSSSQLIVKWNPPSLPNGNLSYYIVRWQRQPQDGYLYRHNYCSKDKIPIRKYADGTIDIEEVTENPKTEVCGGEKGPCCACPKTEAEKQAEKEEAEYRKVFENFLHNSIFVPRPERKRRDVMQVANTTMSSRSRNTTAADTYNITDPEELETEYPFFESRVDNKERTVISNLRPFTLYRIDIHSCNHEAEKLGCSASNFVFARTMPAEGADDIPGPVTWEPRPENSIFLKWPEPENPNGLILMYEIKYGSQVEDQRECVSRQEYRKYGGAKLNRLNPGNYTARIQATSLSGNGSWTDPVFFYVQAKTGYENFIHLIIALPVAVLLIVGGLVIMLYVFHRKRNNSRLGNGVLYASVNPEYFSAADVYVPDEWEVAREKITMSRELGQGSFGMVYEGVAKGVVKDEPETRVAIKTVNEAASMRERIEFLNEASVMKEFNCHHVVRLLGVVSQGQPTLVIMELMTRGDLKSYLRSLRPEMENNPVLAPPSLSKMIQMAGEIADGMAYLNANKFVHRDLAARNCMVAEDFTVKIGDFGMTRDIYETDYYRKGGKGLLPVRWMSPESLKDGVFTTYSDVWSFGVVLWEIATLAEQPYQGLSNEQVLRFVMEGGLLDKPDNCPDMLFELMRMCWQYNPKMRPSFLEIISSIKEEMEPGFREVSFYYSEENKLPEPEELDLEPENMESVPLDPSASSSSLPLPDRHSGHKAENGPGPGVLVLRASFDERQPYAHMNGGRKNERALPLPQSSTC

[9] = listed as picropodophyllin polymorph C
[10] = listed as picropodophyllin polymorph B

**Q.** Which results are given for COc1cc([C@@H]2c3cc4c(cc3[C@H](O)[C@H]3COC(=O)[C@@H]23)OCO4)cc(OC)c1OC [polymorph C, picropodophyllin]?
**A.** Solid form by XRPD after sonication ([1]; in purified water, cooled on ice, sonicated for 5 minutes): no phase change occurred; Solid form by XRPD after mortaring ([1]; mortared for 5 minutes in agate mortar): no phase change occurred; Solid form by XRPD after stirring in water [1, 9]: no phase change occurred; Solubility in 1% SDS in water [2, 9]: 0.4 mg/mL (≈ 965 µM); TGA mass loss from ambient temperature to 150° C. [3, 9]: 0.1±0.1%; TGA mass loss from ambient temperature to 150° C. [4, 9]: 0.1±0.1%; solubility ([5]; 37 °C, pH 6.5, aqueous buffer, thermodynamic from solid, Apparent Solubility Assay 1 + 2, PhB 6.5, 37° C., assays 1 and 2 combined, mean ± SD): 5.85 ± 0.25 µg/mL; solubility ([5]; 37 °C, pH 6.5, aqueous buffer, thermodynamic from solid, Apparent Solubility assay 1, PhB 6.5, 37° C., assay time polymorph B 19 hours, polymorph C […], mean ± SD, triplicate): 5.88 ± 0.09 µg/mL (≈ 14.2 µM); solubility at 50 min ([5]; 37 °C, pH 6.5, aqueous buffer, thermodynamic from solid, Apparent Solubility assay 2, PhB 6.5, 37° C., assay time 29 hours (value obtained after 50 minutes), mean ± SD, triplicate): 5.81 ± 0.38 µg/mL (≈ 14 µM); solubility ([5]; 37 °C, pH 6.5, fessif, thermodynamic from solid, Apparent Solubility Assay 1 + 2, FeSSIF pH 6.5, 37° C., assays 1 and 2 combined): 12.6 ± 0.8 µg/mL; solubility at 25 h ([5]; 37 °C, pH 6.5, fessif, thermodynamic from solid, Apparent Solubility assay 2, FeSSIF pH 6.5, 37° C., assay time 25 hours, triplicate): 12.2 ± 1.07 µg/mL (≈ 29.5 µM)

**Q.** Which “Solid form by XRPD after stirring in water” value [1] does the source give for COc1cc([C@@H]2c3cc4c(cc3[C@H](O)[C@H]3COC(=O)[C@@H]23)OCO4)cc(OC)c1OC [polymorph B, picropodophyllin] here?
**A.** converted to a mixture of mainly picropodophyllin monohydrate and some picropodophyllin polymorph B

**Q.** What about the “Solid form obtained from slurry of polymorphs B and C” value (from here on “Solid form obtained from slurry”) ([6]; acetone saturated with picropodophyllin, five days, ambient temperature) of the same molecule?
**A.** converted to polymorph C

**Q.** And the “Solid form obtained from slurry” value ([6]; ethyl acetate saturated with picropodophyllin, five days, ambient temperature)?
**A.** converted to polymorph C

**Q.** And the “Solid form obtained from slurry” value ([6]; mesitylene saturated with picropodophyllin, five days, ambient temperature)?
**A.** converted to polymorph C

**Q.** And the “Solid form obtained from slurry” value ([6]; mesitylene, 70° C., overnight)?
**A.** converted to polymorph C

**Q.** And the “Solid form obtained from slurry” value ([6]; mesitylene, 120° C., 4 hours)?
**A.** converted to polymorph C

**Q.** What about the solubility at 24 h ([2]; 1% SDS in water, aqueous with cosolvent or surfactant or cyclodextrin, thermodynamic from solid) of the same molecule?
**A.** 700 µg/mL (≈ 1690 µM)

**Q.** And the DVS mass increase [7]?
**A.** 0.2%

**Q.** And the “TGA mass loss from ambient temperature to 150° C.” value [3, 10]?
**A.** 0.0±0.1%

**Q.** What about the “Solid-state instability (XRPD, TGA)” value ([4]; 3 months storage at 25° C./60% RH) of the same molecule?
**A.** does not show any sign(s) of solid-state instability

**Q.** And the “Solid-state instability (XRPD, TGA)” value ([4]; 3 months storage at 40° C./75% RH)?
**A.** does not show any sign(s) of solid-state instability

**Q.** And the “TGA mass loss from ambient temperature to 150° C.” value [4, 10]?
**A.** 0.0±0.1%

**Q.** What about the Change in appearance ([4]; 3 months at 25° C./60% RH) of the same molecule?
**A.** no change in appearance

**Q.** And the Change in appearance ([4]; 3 months at 40° C./75% RH)?
**A.** no change in appearance

**Q.** And the “Apparent Solubility assay 1” value ([5]; FeSSIF pH 6.5, 37° C., assay time polymorph B 16 hours, polymorph C 1.3 hours, triplicate)?
**A.** 25.51 ± 0.51 µg/mL

**Q.** And the “Solubility increase in FeSSIF as compared to PhB 6.5” value ([5]; FeSSIF pH 6.5 vs PhB 6.5)?
**A.** 2.2 fold

**Q.** What about the “Apparent Solubility assay 1” value ([5]; PhB 6.5, 37° C., assay time polymorph B 19 hours, polymorph C […], mean ± SD, triplicate) of the same molecule?
**A.** 11.72 ± 0.22 µg/mL

**Q.** Which “Solubility in 1% SDS in water” value ([2]; monohydrate) does the source give for COc1cc(C2c3cc4c(cc3C(O)[C@H]3COC(=O)[C@@H]23)OCO4)cc(OC)c1OC (stereo partly drawn) [picropodophyllin monohydrate, reference compound] here?
**A.** 0.2 mg/mL

**Q.** With COc1cc([C@@H]2c3cc4c(cc3[C@H](O)[C@H]3COC(=O)[C@@H]23)OCO4)cc(OC)c1OC [picropodophyllin] as the molecule, how does the “Inhibition of IGF-1R” value [8] read?
**A.** specific and potent inhibitor
